Results published in patent publication US10864192B2, “Compositions and methods for inhibiting brain trauma-induced neurodegeneration and related conditions” (priority 2016, dated 2020).
pIC50: −log10 of the molar value. Where “and” joins values, the source holds several entries; their conditions need not be identical. Equal values may be shown once. Read-outs that look alike come from different tables or passages of the source.

Experiments:
SH-SY5Y neuronal cells = test: Phenserine plus anti-inflammatory drug, oxidative stress and trophic effects in SH-SY5Y cells (MTS assay)
Method: Human SH-SY5Y neuronal cells were seeded in 96-well plates at a density of 1×10^5 cells per well and allowed to grow for 24 hr. […] […] At 18 hr thereafter a MTS assay was performed per the manufacturers protocol (Abcam, Cambridge, Mass.) to measure cell viability.
For example, instead of aspirin (as shown in FIG. 3A), an NSAID, naproxen, was used under the same experimental conditions at concentrations in FIGS. 3B-3D.

[1] = in vivo
[2] = Plasma concentrations of phenserine and its metabolites in human plasma; type: in vivo; conditions: both sexes, in vivo; for concentration at 1 h: Hour 1; for concentration at 2 h: Hour 2; for concentration at 3 h: Hour 3; for concentration at 4 h: Hour 4
Method: The relationship between pharmacokinetic and pharmacodynamics evaluated in FIG. 15 was evaluated in aged volunteers. A total of 32 subjects (60-80 years of age, 11 males/21 females) were screened and enrolled. All participants provided informed consent, the conduct of the study were approved and overseen by the local Review IRB.
For pharmacokinetic (blood concentrations of primary drug and select metabolites) a dose […] additionally was evaluated.
These were centrifuged within 15 min of collection, and stored in a freezer at −70° C. freezer in marked polypropylene tubes until analysis. Phenserine levels were quantified by liquid chromatography/mass spectrometry (LC/MS/MS). In brief, analyses were undertaken on Perkin-Elmer (PE, Norwalk, USA) high performance liquid chromatographic (HPLC) instrumentation. Compound separation was performed on a Phenomenex LUNA C18 column (5 μM, 2.0 mm×150 mm; Torrance, USA), with a Phenomenex guard column (2 mm×30 mm). The mobile phase was 60% acetonitrile (HPLC grade) plus 40% ammonium acetate (v/v) with a flow rate of 0.4 mL/min. […] Thereafter, 2 mL of tert-butyl methyl ether was added and the sample was mixed and flash frozen. The organic layer was decanted, dried under a stream of nitrogen and reconstituted into 250 μL of mobile phase. Of this, a 60 μL sample was then injected into the HPLC.

clinical = conditions: for t1/2 /Elim / Estimated Brain CMax: 15 mg immediate release dose; for Estimated Brain CMax: from plasma CMax and brain:plasma partitioning; for Cmax: human, in vivo, 15 mg
Source text: FIGS. 33-34 depict two graphs from an Excel spreadsheet. FIG. 33 is a linear plot of plasma level vs time and FIG. 34 is a semi-log plot of plasma conc. vs time.

[3] = Estimated EC50/IC50 of phenserine and metabolites for pharmacological activity in brain
[4] = Plasma concentrations of phenserine and its metabolites in beagle dog plasma; type: in vivo; conditions: beagle, in vivo; for concentration at 1 h: Hour 1; for concentration at 2 h: Hour 2; for concentration at 3 h: Hour 3; for concentration at 4 h: Hour 4
[5] = Plasma concentrations of phenserine and its metabolites in wistar rat plasma; conditions: in vivo; for concentration at 1 h: Hour 1; for concentration at 2 h: Hour 2
SH-SY5Y cells = test: Cell proliferation of SH-SY5Y cells (MTS assay); type: cell-based, human; conditions: 30 uM, 24 hr
Method: SHSYSY cells were exposed for 24 hr to 30 uM concentration of (−)- and (+)-phenserine. After 24 hr cell proliferation was determined by MTS assay. *P,0.05, **p,0.01, and ***p,0.001 compared to control samples without drug.

With `CC(=O)Oc1ccccc1C(=O)O` [ASA, acetylsalicylic acid, reference compound] the “oxidative stress-induced cellular death (cell viability)” value (SH-SY5Y neuronal cells; ASA 10^−5 M, (−)-Phen 10^−7 M, 10^−6 M, H2O2 50 μM, 18 hr) was “no activity”.
With `COc1ccc2cc([C@H](C)C(=O)O)ccc2c1` [naproxen, reference compound] the “tolerability by SH-SY5Y neuronal cells” value (SH-SY5Y neuronal cells; 10 nM to 100,000 nM) was “well tolerated” and the trophic actions (SH-SY5Y neuronal cells; 10 nM to 100,000 nM) was “does not show activity”.
In the case of `CN1c2ccc(OC(=O)Nc3ccccc3)cc2[C@]2(C)CCN[C@H]12` [N1-nor-phenserine, (−)-N1-norphenylcarbamoyleseroline], the “brain:blood partition” value [1] was “approx. 4:1”, the concentration at 1 h [2] was 1.56 ng/mL and the concentration at 2 h [2] was 1.19 ng/mL. The concentration at 3 h [2] was 0.8 ng/mL, the concentration at 4 h [2] was 0.53 ng/mL and the “t1/2 /Elim” value (clinical) was 1.90 to 1.96 h. The “Estimated Brain CMax” value (clinical) was 2.15 ng/ml and 6.6 nM, the Cmax (clinical) was 1.56 ng/mL and 4.8 nM and the expected plasma levels (clinical; targeted 30 mg/d or 60 mg/d in sustained release formulation) was over 1.0 ng/mL. For the same molecule, the “Estimated EC50” value [3] was 24-100 NanoMolar, the concentration at 1 h [4] was 86.1 ng/mL and the concentration at 2 h [4] was 50.3 ng/mL. It also gave a concentration at 3 h [4] of 86.7 ng/mL, a concentration at 4 h [4] of 41.9 ng/mL and a concentration at 1 h [5] of 37.6 ng/mL. It also gave a concentration at 2 h [5] of 26.2 ng/mL.
With `C[C@@]12CCN[C@@H]1Nc1ccc(OC(=O)Nc3ccccc3)cc12` [N1,N8-bisnor-phenserine, (−)-N1, N8-bisnorphenylcarbamoyleseroline] the “brain:blood partition” value [1] was “approx. 1.3:1”, the concentration at 1 h [2] was 22.5 ng/mL and the concentration at 2 h [2] was 14.5 ng/mL. For the same molecule, the concentration at 3 h [2] was 7.62 ng/mL, the concentration at 4 h [2] was 6.55 ng/mL and the “t1/2 /Elim” value (clinical) was 0.53 to 1.29 h. For the same molecule, the “Estimated Brain CMax” value (clinical; listed as N-1, N-8 BisNor P) was 28.8 ng/ml and 95.0 nM, the Cmax (clinical) was 22.5 ng/mL and 73.3 nM and the “Estimated EC50” value [3] was 100 NanoMolar. It also gave a pIC50 ([3]; BNPCE IC50+/−25, read-out: IC50 (estimated)) of 7.66, a pIC50 ([3]; pharmacological activity in brain, read-out: estimated IC50) of 7.00 and a concentration at 1 h [4] of 235 ng/mL. The concentration at 2 h [4] was 220 ng/mL, the concentration at 3 h [4] was 428 ng/mL and the concentration at 4 h [4] was 351 ng/mL. It also gave a concentration at 1 h [5] of 536 ng/mL and a concentration at 2 h [5] of 539 ng/mL.
With `CN1CC[C@@]2(C)c3cc(OC(=O)Nc4ccccc4)ccc3N[C@@H]12` [N8-nor-phensereine, (−)-N8-norphenylcarbamoyleseroline] the “brain:blood partition” value [1] was “approx. 6:1”, the concentration at 1 h [2] was 11.2 ng/mL and the concentration at 2 h [2] was 7.38 ng/mL. For the same molecule, the concentration at 3 h [2] was 4.28 ng/mL, the concentration at 4 h [2] was 3.61 ng/mL and the “t1/2 /Elim” value (clinical) was 1.51 to 1.76 h. The “Estimated Brain CMax” value (clinical) was 17.7 ng/ml and 52.9 nM, the Cmax (clinical) was 11.2 ng/mL and 34.8 nM and the “Estimated EC50” value [3] was 24-100 NanoMolar. For the same molecule, the concentration at 1 h [4] was 33.4 ng/mL, the concentration at 2 h [4] was 28.2 ng/mL and the concentration at 3 h [4] was 9.06 ng/mL. The concentration at 4 h [4] was 7.88 ng/mL, the concentration at 1 h [5] was 96.4 ng/mL and the concentration at 2 h [5] was 69.2 ng/mL.
In the case of `CN1CC[C@]2(C)c3cc(OC(=O)Nc4ccccc4)ccc3N(C)[C@H]12` [(+)-phenserine, reference compound], the “cell proliferation (neurotrophic actions)” value (SH-SY5Y cells) was “increasing cellular proliferation”.
